The text below walks through data of ChEMBL document CHEMBL1121757, “Alpha-adrenergic agents. 1. Direct-acting alpha 1 agonists related to methoxamine” (J Med Chem, 1981).

Some results are limits rather than exact numbers.

For assay [1], the target named is T1, Alpha-1A adrenergic receptor (Homo sapiens, UniProt P35348).
T1 sequence (P35348 whole entry): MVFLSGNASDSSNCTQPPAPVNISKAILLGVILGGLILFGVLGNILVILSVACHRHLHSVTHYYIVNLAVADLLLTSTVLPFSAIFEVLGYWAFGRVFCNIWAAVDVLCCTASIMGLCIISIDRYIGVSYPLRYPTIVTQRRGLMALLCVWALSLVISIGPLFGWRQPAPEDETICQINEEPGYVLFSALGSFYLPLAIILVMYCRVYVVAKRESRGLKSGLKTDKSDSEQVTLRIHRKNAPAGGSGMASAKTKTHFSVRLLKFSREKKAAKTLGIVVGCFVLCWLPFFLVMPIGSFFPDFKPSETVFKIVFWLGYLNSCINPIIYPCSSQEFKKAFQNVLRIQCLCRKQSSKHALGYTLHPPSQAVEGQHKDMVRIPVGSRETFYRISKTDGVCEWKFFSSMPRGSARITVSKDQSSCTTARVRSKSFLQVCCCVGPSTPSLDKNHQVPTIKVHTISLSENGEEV
Put plainly: Alpha-1 adrenergic receptor agonist activity in rabbit ear artery. Conditions: target entry is the homologue from another species. The assay is classed as functional, tissue-based, Oryctolagus cuniculus.

The species named for the next assay is Oryctolagus cuniculus. As to the kind of experiment: Phentolamine dissociation constant was evaluated in rabbit ear artery. The assay is classed as functional.

In the case of `COc1ccc(OC)c2c1C1CCC2[C@H](N)C1` (some centres undefined), a half-maximal effect in assay [1] (EC50) was put at 30 µM.

Compound `COc1ccc(OC)c(C(O)C(C)N)c1` (centres undefined) [METHOXAMINE] displayed a Kb in the assay listed under Oryctolagus cuniculus of 0.0098 µM. The compound also returned an EC50 in assay [1] of 0.72 µM.

Regarding `COc1ccc(OC)c2c1CC1C2[C@@H]1N` (some centres undefined), the Kb in the assay filed under Oryctolagus cuniculus is 0.0084 µM. In assay [1], this compound returned an EC50 of 0.34 µM.

In the case of `COc1ccc(OC)c2c1CC[C@H]1NCCCC21` (some centres undefined), in the assay filed under Oryctolagus cuniculus, the Kb amounted to 0.011 µM. Moreover, in assay [1], it took 0.17 µM to reach a half-maximal effect (EC50).

The compound `COc1ccc(OC)c2c1C1CCC2[C@@H](N)C1` (some centres undefined) yielded an EC50 in assay [1] of 30 µM.

In the assay filed under Oryctolagus cuniculus, `COc1ccc(OC)c2c1CC[C@@H]1NCCCC21` (some centres undefined) came in with a Kb of 0.0147 µM. In addition, the 50% effective concentration (EC50) in assay [1] was found to be 0.2 µM.

With `COc1ccc(OC)c(CCN)c1`, the Kb in the assay listed under Oryctolagus cuniculus turned out to be 0.054 µM. In addition, it took 11 µM to reach a half-maximal effect in assay [1] (EC50).

As to `NC1CCc2ccccc2C1` (centres undefined), the EC50 in assay [1] was more than 30 µM.

In turn, `COc1ccc(OC)c2c1CCC(N)C2` (centres undefined) registered a Kb in the assay filed under Oryctolagus cuniculus of 0.006 µM. For the same compound, a half-maximal response in assay [1] (EC50) required 0.12 µM.

Regarding `COc1ccc(OC)c2c1CCNC2`, the EC50 in assay [1] is more than 30 µM.

In the case of `COc1ccc(OC)c2c1CCCC(N)C2` (centres undefined), the Kb in the assay listed under Oryctolagus cuniculus was found to be 0.011 µM. In addition, a half-maximal response in assay [1] (EC50) required 5.3 µM.

In turn, `COc1ccc(OC)c2c1CC(N)C2` had an EC50 in assay [1] of 30 µM.
